Where two headings read alike, the source gives them in different places.
How the values were obtained:
Format in all cases: cell-based
[1] = test system: non-small-cell lung cancer cells (Calu1); experiment: In vitro potency (CellTiter-Glo, 96 h), Calu1; settings: Homo sapiens, Calu-1, 96 h, Table 28; CPT free drugs; non-small-cell lung cancer cells Calu1; 96 h, CellTiter-Glo; read-out: Calu1 IC50
Description: (§1) In vitro potency was assessed on multiple cancer cell lines. All cell lines were authenticated by STR profiling at IDEXX Bioresearch and cultured for no more than 2 months after resuscitation. Cells cultured in log-phase growth were seeded for 24 hours in 96-well plates containing […] RPMI 1640 supplemented with 20% FBS. Serial dilutions of antibody-drug conjugates in cell culture media were prepared at 4× working concentrations, and 50 μL of each dilution was added to the 96-well plates. Following addition of test articles, cells were incubated with test articles for 4 days at 37 0° C. After 96 hours, growth inhibition was assessed by CellTiterGlo® (Promega, Madison, WI) and luminescence was measured on a plate reader.
(§2) In Table 7, IC50 values for ADCs are given in ng/mL. Cell viability was determined by CellTiter-Glo staining after 96 h exposure to ADC. ND=Not Determined. Ag2 is an antibody targeting a ubiquitous and readily internalizable antigen. The cancer cell lines tested are renal carcinoma cells (786-0), melanoma cells (A2058), pancreatic cancer cells (BxPC3), non-small-cell lung cancer cells (Calu1), anaplastic large cell lymphoma cells (DEL, DELBVR, Karpas299), Hodgkin's lymphoma cells (L540cy), (Ls174T), breast cancer cells (MDA-MB-231), acute myeloid leukemia cells (MOLM-13), and B-lymphocyte cancer cells (SU-DHL4).
as §1, with “FBS.” for “FBS. Serial dilutions of antibody-drug conjugates in cell culture media were prepared at 4× working concentrations, and 50 μL of each dilution was added to the 96-well plates.”
(§3) Cell viability was determined by CellTiter-Glo staining after 96 h exposure to the compound. ND=Not Determined. The cancer cell lines tested are renal carcinoma cells (786-0), melanoma cells (A2058), pancreatic cancer cells (BxPC3), non-small-cell lung cancer cells (Calu1), anaplastic large cell lymphoma cells (DEL, DELBVR, Karpas299), Hodgkin's lymphoma cells (L540cy), (Ls 174T), breast cancer cells (MDA-MB-231), acute myeloid leukemia cells (MOLM-13), B-lymphocyte cancer cells (SU-DHL4), multiple myeloma cells (MM.1R), (U266), and melanoma cells (SK-MEL-5).
as §1, with “37°” for “37 0°”
(§4) In the following Tables IC50 values for ADCs and CPT free drugs are given in ng/mL and nmol/L concentrations. Cell viability was determined by CellTiter-Glo staining after 96 h exposure to ADC or CPT free drug.
(§5) Cell viability was determined by CellTiter-Glo staining after 96 h exposure to ADC. ND=Not Determined.

[2] = test system: renal carcinoma cells (786-O); experiment: In vitro potency (CellTiter-Glo, 96 h), 786-O; settings: Homo sapiens, 786-0, 96 h
Description: as §1, §2
as §1, with “FBS.” for “FBS. Serial dilutions of antibody-drug conjugates in cell culture media were prepared at 4× working concentrations, and 50 μL of each dilution was added to the 96-well plates.”
as §3
as §1, with “37°” for “37 0°”
as §4, §5

melanoma cells (A2058) = experiment: In vitro potency (CellTiter-Glo, 96 h), A2058; settings: Homo sapiens, A2058, 96 h, read-out: A2058 IC50
Description: as §1, §2
as §1, with “FBS.” for “FBS. Serial dilutions of antibody-drug conjugates in cell culture media were prepared at 4× working concentrations, and 50 μL of each dilution was added to the 96-well plates.”
as §3
as §1, with “37°” for “37 0°”
as §4, §5

[3] = test system: pancreatic cancer cells (BxPC3); experiment: In vitro potency (CellTiter-Glo, 96 h), BxPC3; settings: Homo sapiens, BXPC-3, 96 h
Description: as §1, §2
as §1, with “FBS.” for “FBS. Serial dilutions of antibody-drug conjugates in cell culture media were prepared at 4× working concentrations, and 50 μL of each dilution was added to the 96-well plates.”
as §3
as §1, with “37°” for “37 0°”
as §4, §5

[4] = test system: anaplastic large cell lymphoma cells (DEL); experiment: In vitro potency (CellTiter-Glo, 96 h), DEL
Description: as §1, §2
as §1, with “FBS.” for “FBS. Serial dilutions of antibody-drug conjugates in cell culture media were prepared at 4× working concentrations, and 50 μL of each dilution was added to the 96-well plates.”
as §3
as §1, with “37°” for “37 0°”
as §4, §5

[5] = test system: anaplastic large cell lymphoma cells (DELBVR); experiment: In vitro potency (CellTiter-Glo, 96 h), DELBVR
Description: as §1, §2
as §1, with “FBS.” for “FBS. Serial dilutions of antibody-drug conjugates in cell culture media were prepared at 4× working concentrations, and 50 μL of each dilution was added to the 96-well plates.”
as §3
as §1, with “37°” for “37 0°”
as §4, §5

[6] = test system: anaplastic large cell lymphoma cells (Karpas299); experiment: In vitro potency (CellTiter-Glo, 96 h), Karpas299; settings: Homo sapiens, KARPAS-299, 96 h
Description: as §1, §2
as §1, with “FBS.” for “FBS. Serial dilutions of antibody-drug conjugates in cell culture media were prepared at 4× working concentrations, and 50 μL of each dilution was added to the 96-well plates.”
as §3
as §1, with “37°” for “37 0°”
as §4, §5

[7] = test system: Hodgkin's lymphoma cells (L540cy); experiment: In vitro potency (CellTiter-Glo, 96 h), L540cy
Description: as §1, §2
as §1, with “FBS.” for “FBS. Serial dilutions of antibody-drug conjugates in cell culture media were prepared at 4× working concentrations, and 50 μL of each dilution was added to the 96-well plates.”
as §3
as §1, with “37°” for “37 0°”
as §4, §5

Ls174T cells = experiment: In vitro potency (CellTiter-Glo, 96 h), Ls174T; settings: Homo sapiens, LS174T, 96 h, 96 h
Description: as §1, §2
as §1, with “FBS.” for “FBS. Serial dilutions of antibody-drug conjugates in cell culture media were prepared at 4× working concentrations, and 50 μL of each dilution was added to the 96-well plates.”
as §3
as §1, with “37°” for “37 0°”
as §4, §5

[8] = test system: breast cancer cells (MDA-MB-231); experiment: In vitro potency (CellTiter-Glo, 96 h), MDA-MB-231; settings: Homo sapiens, MDA-MB-231, 96 h
Description: as §1, §2
as §1, with “FBS.” for “FBS. Serial dilutions of antibody-drug conjugates in cell culture media were prepared at 4× working concentrations, and 50 μL of each dilution was added to the 96-well plates.”
as §3
as §1, with “37°” for “37 0°”
as §4, §5

[9] = test system: acute myeloid leukemia cells (MOLM-13); experiment: In vitro potency (CellTiter-Glo, 96 h), MOLM-13; settings: Homo sapiens, MOLM-13, 96 h
Description: as §1, §2
as §1, with “FBS.” for “FBS. Serial dilutions of antibody-drug conjugates in cell culture media were prepared at 4× working concentrations, and 50 μL of each dilution was added to the 96-well plates.”
as §3
as §1, with “37°” for “37 0°”
as §4, §5

[10] = test system: B-lymphocyte cancer cells (SU-DHL4); experiment: In vitro potency (CellTiter-Glo, 96 h), SU-DHL-4; settings: Homo sapiens, SU-DHL-4, 96 h
Description: as §1, §2
as §1, with “FBS.” for “FBS. Serial dilutions of antibody-drug conjugates in cell culture media were prepared at 4× working concentrations, and 50 μL of each dilution was added to the 96-well plates.”
as §3
as §1, with “37°” for “37 0°”
as §4, §5

[11] = read-out: 786-O IC50, camptothecin free drug, 96 h
[12] = read-out: BxPC3 IC50, camptothecin free drug, 96 h
[13] = read-out: DEL IC50, camptothecin free drug, 96 h
[14] = read-out: DELBVR IC50, camptothecin free drug, 96 h
[15] = read-out: Karpas299 IC50, camptothecin free drug, 96 h
[16] = read-out: L540cy IC50, camptothecin free drug, 96 h
[17] = read-out: Ls174T IC50, camptothecin free drug, 96 h
[18] = read-out: MDAMB231 IC50, camptothecin free drug, 96 h
[19] = read-out: MOLM-13 IC50, camptothecin free drug, 96 h
[20] = read-out: SU-DHL-4 IC50, camptothecin free drug, 96 h
[21] = camptothecin free drug, 96 h, read-out: 786-O IC50
[22] = camptothecin free drug, 96 h, read-out: BxPC3 IC50
[23] = camptothecin free drug, read-out: DEL IC50
[24] = camptothecin free drug, read-out: DELBVR IC50
[25] = camptothecin free drug, 96 h, read-out: Karpas299 IC50
[26] = camptothecin free drug, read-out: L540cy IC50
[27] = camptothecin free drug, read-out: Ls174T IC50
[28] = camptothecin free drug, 96 h, read-out: MDAMB231 IC50
[29] = camptothecin free drug, 96 h, read-out: MOLM-13 IC50
[30] = camptothecin free drug, 96 h, read-out: SU-DHL-4 IC50

SMILES	IC50 [2, 11] [nM]	IC50 (melanoma cells (A2058)) [nM]	IC50 [3, 12] [nM]	IC50 [4, 13] [nM]	IC50 [5, 14] [nM]	IC50 [6, 15] [nM]	IC50 [7, 16] [nM]	IC50 (Ls174T cells; [17]) [nM]	IC50 [8, 18] [nM]	IC50 [9, 19] [nM]	IC50 [10, 20] [nM]	IC50 [2, 21] [nM]	IC50 (melanoma cells (A2058); camptothecin free drug, 96 h) [nM]	IC50 [3, 22] [nM]	IC50 [4, 23] [nM]	IC50 [5, 24] [nM]	IC50 [6, 25] [nM]	IC50 [7, 26] [nM]	IC50 (Ls174T cells; [27]) [nM]	IC50 [8, 28] [nM]	further results
CC[C@@]1(O)C(=O)OCc2c1cc1n(c2=O)Cc2c-1nc1cc(F)c(SC)cc1c2CN [Compound 2at]	–	–	–	–	–	–	–	–	–	–	–	–	–	–	–	–	–	–	–	–	IC50 [1]: 37 nM
CC[C@@]1(O)C(=O)OCc2c1cc1n(c2=O)Cc2c-1nc1cc3c(cc1c2CNCC(O)CN1CCOCC1)OCO3 (stereo partly drawn) [Compound 7i]	128	33	106	38	51	154	63	72	1000	312	72	–	–	–	–	–	–	–	–	–	IC50 ([2]; read-out: 786-O IC50, Table 29, CPT free drugs, renal carcinoma cells 786-O, 96 h, CellTiter-Glo): 118 nM; IC50 ([3]; read-out: BxPC3 IC50, Table 29, CPT free drugs, pancreatic cancer cells BxPC3, 96 h, CellTiter-Glo): 57 nM; IC50 ([4]; read-out: DEL IC50, Table 29, CPT free drugs, anaplastic large cell lymphoma cells DEL, CellTiter-Glo): 9 nM; IC50 ([5]; read-out: DELBVR IC50, Table 29, CPT free drugs, anaplastic large cell lymphoma cells DELBVR, CellTiter-Glo): 17 nM; IC50 ([6]; read-out: Karpas299 IC50, Table 29, CPT free drugs, anaplastic large cell lymphoma cells Karpas299, 96 h, CellTiter-Glo): 84 nM; IC50 ([7]; read-out: L540cy IC50, Table 29, CPT free drugs, Hodgkin's lymphoma cells L540cy, CellTiter-Glo): 48 nM; IC50 (Ls174T cells; read-out: Ls174T IC50, Table 29, CPT free drugs, Ls174T cells, CellTiter-Glo): 110 nM; IC50 ([8]; read-out: MDAMB231 IC50, Table 29, CPT free drugs, breast cancer cells MDA-MB-231, 96 h, CellTiter-Glo): 183 nM; IC50 ([9]; read-out: MOLM-13 IC50, Table 29, CPT free drugs, acute myeloid leukemia cells MOLM-13, 96 h, CellTiter-Glo): 183 nM; IC50 ([10]; read-out: SU-DHL-4 IC50, Table 29, CPT free drugs, B-lymphocyte cancer cells SU-DHL4, 96 h, CellTiter-Glo): 32 nM
CC[C@@]1(O)C(=O)OCc2c1cc1n(c2=O)Cc2c-1nc1cc3c(cc1c2CNCCN1CCN(C(=O)OC(C)(C)C)CC1)OCO3 [Compound 7f]	–	–	–	–	–	–	–	–	–	–	–	130	41	155	52	52	162	66	69	776	IC50 [9, 29]: > 1000 nM; IC50 [10, 30]: 83 nM
CC[C@@]1(O)C(=O)OCc2c1cc1n(c2=O)Cc2c-1nc1cc3c(cc1c2CNCCCN1CCN(C(=O)OC(C)(C)C)CC1)OCO3 [Compound 7m]	–	–	–	–	–	–	–	–	–	–	–	139	58	173	55	54	171	80	222	700	IC50 [9, 29]: 459 nM; IC50 [10, 30]: 74 nM
CC[C@@]1(O)C(=O)OCc2c1cc1n(c2=O)Cc2c-1nc1cc3c(cc1c2CNC1CCOCC1)OCO3 [Compound 7k]	57	14	63	6	14	46	20	67	207	34	19	–	–	–	–	–	–	–	–	–	–
CC[C@@]1(O)C(=O)OCc2c1cc1n(c2=O)Cc2c-1nc1cc3c(cc1c2CNC[C@@H](O)CO)OCO3 [Compound 7u]	122	19	108	26	50	128	60	86	707	456	66	–	–	–	–	–	–	–	–	–	–
CC[C@@]1(O)C(=O)OCc2c1cc1n(c2=O)Cc2c-1nc1cc3c(cc1c2CNCCCN(C)C(=O)OC(C)(C)C)OCO3 [Compound 7a]	–	–	–	–	–	–	–	–	–	–	–	111	23	81	25	49	135	52	74	390	IC50 [9, 29]: 223 nM; IC50 [10, 30]: 64 nM
CC[C@@]1(O)C(=O)OCc2c1cc1n(c2=O)Cc2c-1nc1cc3c(cc1c2CNCCCN(C)C)OCO3 [Compound 7t]	153	64	171	58	55	166	70	> 1000	1000	326	97	–	–	–	–	–	–	–	–	–	–
CC[C@@]1(O)C(=O)OCc2c1cc1n(c2=O)Cc2c-1nc1cc3c(cc1c2CN1CCN(CCNC(=O)OC(C)(C)C)CC1)OCO3 [Compound 7af]	–	–	–	–	–	–	–	–	–	–	–	177	38	176	15	24	127	62	80	1000	IC50 [9, 29]: 110 nM; IC50 [10, 30]: 48 nM
